# Legend:
# [1] = Half life in Beagle dog at 5 mg/kg, iv; type: ADME, organism-based, Canis lupus familiaris; design: dose 5 mg/kg, route intravenous; details: in vivo
# [2] = system: NCI-H2228; assay: Antitumor activity against human NCI-H2228 cells xenografted in Rowett nude rat assessed as complete tumor regression at 25 mg/kg, po for 14 days measured 7 to 72 hrs post dosing relative to control; type: functional
# [3] = target: T1, Tyrosine-protein kinase Lyn (Homo sapiens, UniProt P07948); assay: Inhibition of LYN (unknown origin) after 60 mins
# [4] = Volume of distribution at steady state in Beagle dog at 5 mg/kg, iv; type: ADME, organism-based, Canis lupus familiaris; design: dose 5 mg/kg, route intravenous; details: in vivo, read-out: Vdss
# [5] = target: Tyrosine-protein kinase SYK (Homo sapiens, UniProt P43405); assay: Inhibition of SYK (unknown origin) after 60 mins
# [6] = Tmax in Sprague-Dawley rat at 3 mg/kg, iv; type: ADME, organism-based; design: dose 3 mg/kg, route intravenous; details: in vivo
# [7] = target: Cyclin-dependent kinase 4 (Homo sapiens, UniProt P11802); assay: Inhibition of CDK4 (unknown origin) after 60 mins
# [8] = target: T2, Mast/stem cell growth factor receptor Kit (Homo sapiens, UniProt P10721); assay: Inhibition of cKIT (unknown origin) after 60 mins
# [9] = target: T3, Tyrosine-protein kinase JAK2 (Homo sapiens, UniProt O60674); assay: Inhibition of TEL-fused JAK2 (unknown origin) by cell-based assay
# [10] = Cmax in BALB/c mouse at 5 mg/kg, iv; type: ADME, organism-based; design: dose 5 mg/kg, route intravenous; details: in vivo
# [11] = target: Platelet-derived growth factor receptor alpha (Homo sapiens, UniProt P16234); assay: Inhibition of PDGFRalpha (unknown origin) after 60 mins
# [12] = Plasma clearance in Sprague-Dawley rat at 3 mg/kg, iv; type: ADME, organism-based; design: dose 3 mg/kg, route intravenous
# [13] = Tmax in Sprague-Dawley rat at 10 mg/kg, po; type: ADME, organism-based; design: dose 10 mg/kg, route oral; details: in vivo
# [14] = target: Glycogen synthase kinase-3 beta (Homo sapiens, UniProt P49841); assay: Inhibition of GSK3beta (unknown origin) after 60 mins
# [15] = Half life in Sprague-Dawley rat at 3 mg/kg, iv; type: ADME, organism-based; design: dose 3 mg/kg, route intravenous; details: in vivo
# [16] = Plasma clearance in BALB/c mouse at 5 mg/kg, iv; type: ADME, organism-based; design: dose 5 mg/kg, route intravenous
# [17] = system: KARPAS-299; assay: Antitumor activity against human KARPAS299 cells xenografted in Rowett nude rat assessed as tumor regression at 50 mg/kg, po for 14 days measured 7 to 72 hrs post dosing relative to control; type: functional
# [18] = system: Rattus norvegicus; assay: Toxicity in po dosed Rowett nude rat xenografted with human NCI-H2228 cells assessed as body weight loss at 5 to 25 mg/kg, po; type: organism-based; design: dose 5-25 mg/kg, route oral; details: in vivo
# [19] = target: BDNF/NT-3 growth factors receptor (Homo sapiens, UniProt Q16620); assay: Inhibition of TEL-fused TRKB (unknown origin) by cell-based assay
# [20] = Volume of distribution at steady state in cynomolgus monkey at 5 mg/kg, iv; type: ADME, organism-based, Macaca fascicularis; design: dose 5 mg/kg, route intravenous; details: in vivo, read-out: Vdss
# [21] = target: Serine/threonine-protein kinase PAK 2 (Homo sapiens, UniProt Q13177); assay: Inhibition of PAK2 (unknown origin) after 60 mins
# [22] = Inhibition of AKT (unknown origin) after 60 mins; design: species or system Homo sapiens
# [23] = AUC in Beagle dog at 5 mg/kg, iv; type: ADME, organism-based, Canis lupus familiaris; design: dose 5 mg/kg, route intravenous; details: plasma
# [24] = target: Fibroblast growth factor receptor 2 (Homo sapiens, UniProt P21802); assay: Inhibition of FGFR2 (unknown origin) after 60 mins
# [25] = target: Receptor-type tyrosine-protein kinase FLT3 (Homo sapiens, UniProt P36888); assay: Inhibition of TEL-fused FLT3 (unknown origin) by cell-based assay
# Target sequence in this assay (P36888 27-993 limits assumed): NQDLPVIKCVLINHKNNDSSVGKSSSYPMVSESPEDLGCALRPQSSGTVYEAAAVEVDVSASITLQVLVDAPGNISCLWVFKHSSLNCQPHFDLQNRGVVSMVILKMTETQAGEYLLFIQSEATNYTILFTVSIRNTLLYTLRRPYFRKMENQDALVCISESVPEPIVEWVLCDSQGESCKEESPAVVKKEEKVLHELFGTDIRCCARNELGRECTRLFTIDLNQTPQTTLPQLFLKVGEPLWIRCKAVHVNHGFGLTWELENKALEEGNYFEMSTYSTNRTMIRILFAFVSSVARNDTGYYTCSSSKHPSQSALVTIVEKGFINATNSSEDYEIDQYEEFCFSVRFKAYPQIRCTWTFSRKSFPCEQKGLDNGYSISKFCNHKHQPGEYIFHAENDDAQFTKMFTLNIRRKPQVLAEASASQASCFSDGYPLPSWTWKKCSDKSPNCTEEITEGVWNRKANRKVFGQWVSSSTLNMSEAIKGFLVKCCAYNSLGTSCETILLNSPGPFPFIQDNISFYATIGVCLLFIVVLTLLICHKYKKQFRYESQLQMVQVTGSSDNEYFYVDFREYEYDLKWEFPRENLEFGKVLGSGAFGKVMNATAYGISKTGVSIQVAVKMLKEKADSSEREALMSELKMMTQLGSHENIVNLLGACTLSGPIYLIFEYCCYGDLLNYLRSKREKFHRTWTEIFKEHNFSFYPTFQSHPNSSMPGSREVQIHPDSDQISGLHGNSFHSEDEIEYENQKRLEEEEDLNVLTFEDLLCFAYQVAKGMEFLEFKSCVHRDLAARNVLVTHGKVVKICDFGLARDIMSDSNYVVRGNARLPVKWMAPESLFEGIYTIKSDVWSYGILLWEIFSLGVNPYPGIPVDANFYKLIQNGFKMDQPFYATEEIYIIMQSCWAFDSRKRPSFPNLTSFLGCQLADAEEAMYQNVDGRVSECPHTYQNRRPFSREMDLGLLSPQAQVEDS
# [26] = target: T4, Tyrosine-protein kinase Lck (Homo sapiens, UniProt P06239); assay: Inhibition of TEL-fused LCK (unknown origin) by cell-based assay
# [27] = Tmax in Beagle dog at 20 mg/kg, po; type: ADME, organism-based, Canis lupus familiaris; design: dose 20 mg/kg, route oral; details: in vivo
# [28] = Volume of distribution at steady state in BALB/c mouse at 5 mg/kg, iv; type: ADME, organism-based; design: dose 5 mg/kg, route intravenous; details: in vivo, read-out: Vdss
# [29] = Tmax in Beagle dog at 5 mg/kg, iv; type: ADME, organism-based, Canis lupus familiaris; design: dose 5 mg/kg, route intravenous; details: in vivo
# [30] = target: T1, Tyrosine-protein kinase Lyn; assay: Inhibition of TEL-fused LYN (unknown origin) by cell-based assay
# [31] = system: NCI-H2228; assay: Antitumor activity against human NCI-H2228 cells xenografted in Rowett nude rat assessed as tumor growth inhibition factor at 5 mg/kg, po for 14 days measured 7 to 72 hrs post dosing relative to control; type: functional
# [32] = Toxicity in po dosed Rowett nude rat xenografted with human KARPAS299 cells; type: organism-based, KARPAS-299; details: in vivo
# [33] = Plasma clearance in cynomolgus monkey at 5 mg/kg, iv; type: ADME, organism-based, Macaca fascicularis; design: dose 5 mg/kg, route intravenous
# [34] = Tmax in cynomolgus monkey at 60 mg/kg, po; type: ADME, organism-based, Macaca fascicularis; design: dose 60 mg/kg, route oral; details: in vivo
# [35] = Cmax in BALB/c mouse at 20 mg/kg, po; type: ADME, organism-based; design: dose 20 mg/kg, route oral; details: in vivo
# [36] = target: Hepatocyte growth factor receptor (Homo sapiens, UniProt P08581)
# Description: Inhibition of cMET (unknown origin) after 60 mins
# [37] = target: T2, Mast/stem cell growth factor receptor Kit; assay: Inhibition of TEL-fused cKIT (unknown origin) by cell-based assay
# [38] = target: Fibroblast growth factor receptor 3 (Homo sapiens, UniProt P22607); assay: Inhibition of FGFR3 (unknown origin) after 60 mins
# [39] = in vivo; details: Sprague-Dawley, rat, po, 10 mg/kg
# [40] = target: T3, Tyrosine-protein kinase JAK2; assay: Inhibition of JAK2 (unknown origin) after 60 mins
# [41] = target: Receptor-type tyrosine-protein kinase FLT3 (Homo sapiens, UniProt P36888); assay: Inhibition of FLT3 (unknown origin) after 60 mins
# [42] = target: MAP kinase-interacting serine/threonine-protein kinase 2 (Homo sapiens, UniProt Q9HBH9); assay: Inhibition of MKNK2 (unknown origin) after 60 mins
# [43] = in vivo; details: Sprague-Dawley, rat, iv, 3 mg/kg
# [44] = target: Proto-oncogene tyrosine-protein kinase Src (Homo sapiens, UniProt P12931); assay: Inhibition of TEL-fused SRC (unknown origin) by cell-based assay
# [45] = Cmax in Beagle dog at 5 mg/kg, iv; type: ADME, organism-based, Canis lupus familiaris; design: dose 5 mg/kg, route intravenous; details: in vivo
# [46] = system: NCI-H2228; details: Homo sapiens
# Description: Antitumor activity against human NCI-H2228 cells xenografted in po dosed Rowett nude rat assessed as tumor growth inhibition administered for 14 days measured 7 to 72 hrs post dosing
# [47] = target: T4, Tyrosine-protein kinase Lck; assay: Inhibition of LCK (unknown origin) after 60 mins
# [48] = system: BaF3; assay: cells; details: Mus musculus
# [49] = target: Cyclin-dependent kinase 2 (Homo sapiens, UniProt P24941); assay: Inhibition of CDK2 (unknown origin) after 60 mins
# [50] = Oral bioavailability in BALB/c mouse at 20 mg/kg; type: ADME, organism-based; details: in vivo
# [51] = Tmax in BALB/c mouse at 20 mg/kg, po; type: ADME, organism-based; design: dose 20 mg/kg, route oral; details: in vivo
# [52] = system: Rattus norvegicus; assay: Toxicity in po dosed Rowett nude rat xenografted with human KARPAS299 cells assessed as body weight loss at 6.25 to 50 mg/kg, po; type: organism-based, KARPAS-299; design: dose 6.25-50 mg/kg, route oral; details: in vivo
# [53] = target: Cytochrome P450 3A4 (Homo sapiens, UniProt P08684); assay: Inhibition of CYP3A4 in human liver microsomes using midazolam as substrate by LC-MS/MS analysis; type: ADME, Microsome
# [54] = target: Tyrosine-protein kinase ZAP-70 (Homo sapiens, UniProt P43403); assay: Inhibition of ZAP70 (unknown origin) after 60 mins
# T1 sequence (P07948 whole entry): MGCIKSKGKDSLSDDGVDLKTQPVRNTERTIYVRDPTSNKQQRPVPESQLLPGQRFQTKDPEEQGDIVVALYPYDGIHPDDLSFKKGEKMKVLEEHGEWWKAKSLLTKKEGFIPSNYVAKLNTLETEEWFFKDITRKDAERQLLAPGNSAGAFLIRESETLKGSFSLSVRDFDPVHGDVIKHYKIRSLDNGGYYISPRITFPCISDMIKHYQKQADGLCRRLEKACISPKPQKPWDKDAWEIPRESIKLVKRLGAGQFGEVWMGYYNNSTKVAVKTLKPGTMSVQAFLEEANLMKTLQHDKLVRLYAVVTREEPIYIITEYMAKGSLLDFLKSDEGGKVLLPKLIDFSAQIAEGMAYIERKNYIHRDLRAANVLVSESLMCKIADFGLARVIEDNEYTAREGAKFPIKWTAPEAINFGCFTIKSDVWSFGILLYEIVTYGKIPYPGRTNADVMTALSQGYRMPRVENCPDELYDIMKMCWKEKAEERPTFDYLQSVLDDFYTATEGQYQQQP
# T2 sequence (P10721 whole entry, the tested form may be a part): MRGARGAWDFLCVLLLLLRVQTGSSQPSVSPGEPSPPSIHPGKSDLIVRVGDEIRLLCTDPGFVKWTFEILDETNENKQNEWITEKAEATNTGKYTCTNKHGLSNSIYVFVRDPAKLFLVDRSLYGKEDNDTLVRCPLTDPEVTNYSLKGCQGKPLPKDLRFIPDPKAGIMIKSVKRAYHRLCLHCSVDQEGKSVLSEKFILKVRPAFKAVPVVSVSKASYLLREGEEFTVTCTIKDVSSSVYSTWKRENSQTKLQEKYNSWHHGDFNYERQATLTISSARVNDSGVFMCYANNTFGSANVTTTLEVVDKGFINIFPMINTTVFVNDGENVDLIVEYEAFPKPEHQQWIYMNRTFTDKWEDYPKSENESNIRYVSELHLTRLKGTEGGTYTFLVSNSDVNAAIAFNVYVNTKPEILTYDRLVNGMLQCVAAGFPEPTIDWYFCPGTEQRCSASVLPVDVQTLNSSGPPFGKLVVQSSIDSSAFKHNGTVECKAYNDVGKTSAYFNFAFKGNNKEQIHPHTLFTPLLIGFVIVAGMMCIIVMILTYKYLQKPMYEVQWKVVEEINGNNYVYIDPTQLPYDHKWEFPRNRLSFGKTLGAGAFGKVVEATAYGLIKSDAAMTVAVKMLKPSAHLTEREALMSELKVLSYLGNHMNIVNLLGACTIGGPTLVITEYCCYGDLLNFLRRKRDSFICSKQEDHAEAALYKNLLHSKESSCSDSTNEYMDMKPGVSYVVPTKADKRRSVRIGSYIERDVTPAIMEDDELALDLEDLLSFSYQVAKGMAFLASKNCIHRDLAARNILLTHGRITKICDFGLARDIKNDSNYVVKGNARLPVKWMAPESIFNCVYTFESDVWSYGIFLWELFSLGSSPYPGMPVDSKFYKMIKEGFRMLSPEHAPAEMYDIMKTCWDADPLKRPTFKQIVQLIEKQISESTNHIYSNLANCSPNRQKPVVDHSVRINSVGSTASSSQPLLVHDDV
# T4 sequence (P06239 whole entry, the tested form may be a part): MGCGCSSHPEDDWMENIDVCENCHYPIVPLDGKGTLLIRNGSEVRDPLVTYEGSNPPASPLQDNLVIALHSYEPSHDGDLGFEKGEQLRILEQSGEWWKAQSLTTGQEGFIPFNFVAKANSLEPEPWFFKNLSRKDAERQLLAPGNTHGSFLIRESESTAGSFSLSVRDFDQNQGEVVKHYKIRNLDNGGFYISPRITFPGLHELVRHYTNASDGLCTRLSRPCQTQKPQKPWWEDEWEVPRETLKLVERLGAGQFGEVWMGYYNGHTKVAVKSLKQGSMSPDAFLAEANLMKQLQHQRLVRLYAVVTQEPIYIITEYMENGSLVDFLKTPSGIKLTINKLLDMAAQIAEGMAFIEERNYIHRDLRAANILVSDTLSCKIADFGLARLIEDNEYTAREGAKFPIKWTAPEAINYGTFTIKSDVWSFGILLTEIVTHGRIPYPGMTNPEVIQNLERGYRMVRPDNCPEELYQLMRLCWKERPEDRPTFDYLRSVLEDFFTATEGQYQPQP
# Sequence of Glycogen synthase kinase-3 beta (P49841 whole entry): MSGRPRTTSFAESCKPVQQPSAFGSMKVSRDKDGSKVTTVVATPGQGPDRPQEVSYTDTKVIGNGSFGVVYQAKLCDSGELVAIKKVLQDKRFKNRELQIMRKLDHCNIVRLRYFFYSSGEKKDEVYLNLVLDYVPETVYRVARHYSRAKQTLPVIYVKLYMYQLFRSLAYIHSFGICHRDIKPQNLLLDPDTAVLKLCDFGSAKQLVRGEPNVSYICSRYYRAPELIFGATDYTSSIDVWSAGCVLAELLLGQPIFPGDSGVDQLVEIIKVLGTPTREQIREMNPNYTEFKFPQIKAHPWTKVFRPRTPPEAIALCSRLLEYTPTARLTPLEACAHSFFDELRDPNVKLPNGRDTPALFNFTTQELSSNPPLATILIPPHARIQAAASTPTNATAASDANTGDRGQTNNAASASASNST
# Sequence of BDNF/NT-3 growth factors receptor (Q16620 32-822 limits assumed): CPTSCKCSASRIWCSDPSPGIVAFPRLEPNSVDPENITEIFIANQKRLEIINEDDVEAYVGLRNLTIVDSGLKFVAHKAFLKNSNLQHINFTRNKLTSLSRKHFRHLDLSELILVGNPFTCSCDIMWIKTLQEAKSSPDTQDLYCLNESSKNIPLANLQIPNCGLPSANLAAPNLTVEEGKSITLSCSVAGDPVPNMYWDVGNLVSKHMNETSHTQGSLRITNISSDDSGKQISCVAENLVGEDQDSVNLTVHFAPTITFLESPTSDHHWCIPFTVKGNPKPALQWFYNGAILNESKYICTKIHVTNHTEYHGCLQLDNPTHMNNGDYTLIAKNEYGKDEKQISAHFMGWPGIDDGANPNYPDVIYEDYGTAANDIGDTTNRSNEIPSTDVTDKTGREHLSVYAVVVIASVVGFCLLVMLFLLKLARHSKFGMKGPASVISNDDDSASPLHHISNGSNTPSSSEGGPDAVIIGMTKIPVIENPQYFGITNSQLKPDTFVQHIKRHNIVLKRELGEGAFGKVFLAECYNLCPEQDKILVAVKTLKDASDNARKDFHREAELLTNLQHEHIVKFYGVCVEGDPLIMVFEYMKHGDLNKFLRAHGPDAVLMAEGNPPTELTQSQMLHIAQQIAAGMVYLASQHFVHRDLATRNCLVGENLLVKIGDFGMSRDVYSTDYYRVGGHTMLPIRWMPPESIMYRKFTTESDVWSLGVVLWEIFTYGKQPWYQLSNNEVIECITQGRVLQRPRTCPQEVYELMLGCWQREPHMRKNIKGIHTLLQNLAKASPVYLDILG
# Sequence of Cytochrome P450 3A4 (P08684 whole entry): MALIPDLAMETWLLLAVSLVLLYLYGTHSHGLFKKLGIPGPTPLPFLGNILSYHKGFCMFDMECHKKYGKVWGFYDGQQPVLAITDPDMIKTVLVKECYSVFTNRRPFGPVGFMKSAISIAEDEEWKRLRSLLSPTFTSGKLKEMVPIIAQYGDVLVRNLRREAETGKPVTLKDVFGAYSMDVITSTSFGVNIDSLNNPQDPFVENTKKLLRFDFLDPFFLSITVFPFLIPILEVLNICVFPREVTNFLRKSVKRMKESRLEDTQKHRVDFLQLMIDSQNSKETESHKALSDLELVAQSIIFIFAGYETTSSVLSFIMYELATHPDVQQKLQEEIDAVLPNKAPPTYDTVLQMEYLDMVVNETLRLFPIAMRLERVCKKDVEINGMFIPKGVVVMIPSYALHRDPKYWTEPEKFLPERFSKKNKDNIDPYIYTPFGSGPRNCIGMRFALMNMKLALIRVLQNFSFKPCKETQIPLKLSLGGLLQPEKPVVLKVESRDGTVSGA
# Sequence of Cyclin-dependent kinase 4 (P11802 whole entry): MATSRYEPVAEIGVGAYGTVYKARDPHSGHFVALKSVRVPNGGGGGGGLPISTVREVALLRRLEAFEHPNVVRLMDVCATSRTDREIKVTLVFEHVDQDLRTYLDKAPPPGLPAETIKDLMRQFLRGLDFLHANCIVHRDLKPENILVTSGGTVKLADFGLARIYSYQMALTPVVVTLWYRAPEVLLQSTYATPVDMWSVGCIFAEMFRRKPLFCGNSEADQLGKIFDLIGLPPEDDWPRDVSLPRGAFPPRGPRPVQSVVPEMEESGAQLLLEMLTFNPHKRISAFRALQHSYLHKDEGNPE
smiles,measurement,setting,value
Cc1cc(Nc2ncc(Cl)c(Nc3ccccc3S(=O)(=O)C(C)C)n2)c(OC(C)C)cc1C1CCNCC1 [CERITINIB],half-life,[1],21 h
same,T/C,[2],-100%
same,IC50,[3],840 nM
same,Vd,[4],13.5 L/kg
same,IC50,[5],3050 nM
same,Tmax,[6],1.8 min
same,IC50,[7],4720 nM
same,IC50,[8],1280 nM
same,IC50,[9],2160 nM
same,Cmax,[10],1760 nM
same,IC50,[11],1140 nM
same,clearance,[12],36.8 mL/min/kg
same,Tmax,[13],7 h
same,IC50,[14],> 10000 nM
same,half-life,[15],9.1 h
same,clearance,[16],26.6 mL/min/kg
same,T/C,[17],-66%
same,Activity,[18],Non-toxic
same,IC50,[19],1830 nM
same,Vd,[20],15 L/kg
same,IC50,[21],> 10000 nM
same,IC50,[22],> 10000 nM
same,AUC,[23],18.1 µM·h
same,IC50,[24],260 nM
same,IC50,[25],3140 nM
same,IC50,[26],672 nM
same,Tmax,[27],8 h
same,Vd,[28],9.7 L/kg
same,Tmax,[29],1.8 min
same,IC50,[30],2310 nM
same,T/C,[31],67%
same,MTD,[32],6.25 mg/kg
same,clearance,[33],12.8 mL/min/kg
same,Tmax,[34],13 h
same,Cmax,[35],696 nM
same,IC50,[36],3170 nM
same,IC50,[37],2860 nM
same,IC50,[38],430 nM
same,Cmax,[39],259 nM
same,IC50,[40],610 nM
same,IC50,[41],60 nM
same,IC50,[42],2240 nM
same,Cmax,[43],770 nM
same,IC50,[44],1690 nM
same,Cmax,[45],2330 nM
same,TGI,[46],Dose-dependent effect
same,IC50,[47],560 nM
same,IC50,[48],2480 nM
same,IC50,[49],3970 nM
same,bioavailability,[50],55%
same,Tmax,[51],7 h
same,Activity,[52],Non-toxic
same,INH,[53],1.5 µM
same,IC50,[54],9700 nM

# — ChEMBL document CHEMBL2401692, “Synthesis, structure-activity relationships, and in vivo efficacy of the novel potent and selective anaplastic lymphoma kinase (ALK) inhibitor 5-chloro-N2-(2-isopropoxy-5-methyl-4-(piperidin-4-yl)phenyl)-N4-(2-(isopropylsulfonyl)phenyl)pyrimidine-2,4-diamine (LDK378) currently in phase 1 and phase …” (J Med Chem, 2013)
